Laboratory results published in patent US20240391931A1 (Bristol-Myers Squibb Company, priority 2021, published 2024).

Key:
Ba/F3 HER2YVMA cells = experiment: Cellular proliferation in Ba/F3 HER2YVMA cells; format: cell-based, murine; conditions: Mus musculus, BaF3, read-out: Ba/F3 YVMA GI50
Protocol: Engineered lines expressing HER2YVMA and HER2 WT were prepared in HEK293 (human embryonic kidney cells), Ba/F3 (Interleukin 3 (IL3)-dependent murine pro B cell line), and BEAS2B (primary immortalized human bronchial epithelial cell line). Ba/F3, BEAS2B, and HEK293 cells were obtained from the American Type Culture Collection (ATCC, Manassas, VA). Parental Ba/F3 cells were grown in suspension in complete RPMI 1640 supplemented with 10% FBS and 1% P/S and 10 ng/ml interleukin 3 (IL3, Sigma-Aldrich). Hek293 and BEAS2B cells were grown as monolayers in DMEM supplemented with 10% FBS and 1% P/S. All cells were maintained and propagated in a humidified 5% CO2 incubator at 37° C.
To generate Ba/F3, BEAS2B, and Hek-293 cells engineered with lentivirus to express HER2 WT or HER2YVMA, the cells were transduced with lentiviruses at multiplicity of infection (MOI) of 1 or 10; transduced cells were selected and maintained with G418 ([…]) (Geneticin, Life Technologies, Carlsbad, CA). Ba/F3 engineered cells were subjected to gradual withdrawal of interleukin 3 (IL-3, Sigma-Aldrich). After selection, IL3 independent Ba/F3 HER2YVMA, and BEAS2B HER2YVMA cells were cloned by limiting dilution. Hek293 HER2YVMA cells were used as pool. HER2 and phospho HER2 levels were confirmed by flow cytometery and immunoassay (MSD, Meso-Scale Discovery, Rockville, Maryland).
Cell proliferation in non-adherent cells was investigated in Ba/F3 parental (IL3-dependent) and in the two IL3 independent cell clones tranduced to express mutant HER2 protein containing the YVMA insertion (Ba/F3 HER2YVMA). Cells were plated in DMEM supplemented with 10% FBS, 1% P/S, and 10 ng/ml IL3 (for parental Ba/F3 only) in 96-well white clear-bottom tissue culture plates (Costar, Sigma-Aldrich) at a starting cell density of 7500 cells. An 8-point standard curve with varying cell densities (starting at 100,000 cells and serially diluting down 2-fold) was prepared for each cell line and read after plating. Compound solutions were prepared in serum free media, and cells were treated as described above for adherent cells. Cell viability was determined by CellTiter Glo (Promega, Madison, WI) after 72 h. The results were converted to cell numbers using a standard curve; growth inhibition (GI50 values) were determined by Graph Pad Prism.
The results of these experiments show the ability of compounds to inhibit cell growth in HER2 dependent cell lines and a control cell line (Ba/F3 parental) are depicted in Table 4 in the columns titled “G150 (nM)”. Ba/F3 parental results fall under the heading “Ba/F3 parental-G150”, and Ba/F3 HER2YVMA fall under the heading “Ba/F3 YVMA-G150”.

NCI-H1781 cells = experiment: Cellular proliferation in NCI-H1781 cells (CellTiter Glo); format: cell-based, human; conditions: 120 h, redosed after 72 h
How it was run: (§1)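 HER2-amplified BT474 and N87 and HER2VC-expressing NCI-H1781, attached overnight, treated with nine compound concentrations from 3 μM in 0.1% DMSO with 5% FBS (7.5% for NCI-H1781). CellTiter Glo read at 72 h (N87) or 120 h with re-dosing at 72 h (BT474, NCI-H1781); converted to cell numbers via standard curve for GI50.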

BT474 cells = experiment: Cellular proliferation in BT474 cells (CellTiter Glo); format: cell-based, human; conditions: 120 h, redosed after 72 h
How it was run: as §1

N87 cells = experiment: Cellular proliferation in N87 cells (CellTiter Glo); format: cell-based, human; conditions: 72 h
How it was run: as §1

[1] = Homo sapiens, NCI-H1781, NCI-H1781 cells
[2] = Homo sapiens, BT-474, BT474 cells

Measured: GI50

COc1ccc(Oc2ccc(Nc3ncnc4sc5c(c34)CCN(C(=O)/C=C/CN(C)C)C5)cc2C)cn1 [Compound 95, (E)-4-(Dimethylamino)-1-(4-((4-((6-methoxypyridin-3-yl)oxy)-3-methylphenyl)amino)-5,6-dihydropyrido[4′,3′:4,5]thieno[2,3-d]pyrimidin-7(8H)-yl)but-2-en-1-one]
< 100 nM: Ba/F3 HER2YVMA cells | NCI-H1781 cells; [1] | BT474 cells; [2] | N87 cells; Homo sapiens

Cc1ccc(Oc2ccc(Nc3ncnc4sc5c(c34)CN(C(=O)/C=C/CN(C)C)C5)cc2C)cn1 [Compound 99, (E)-4-(dimethylamino)-1-(4-((3-methyl-4-((6-methylpyridin-3-yl)oxy)phenyl)amino)-5,7-dihydro-6H-pyrrolo[3′,4′:4,5]thieno[2,3-d]pyrimidin-6-yl)but-2-en-1-one]
< 100 nM: Ba/F3 HER2YVMA cells | NCI-H1781 cells; [1] | BT474 cells; [2] | N87 cells; Homo sapiens

Cc1ccc(Oc2ccc(Nc3ncnc4sc5c(c34)CCN(C(=O)/C=C/CN3CC4C(CO)C4C3)C5)cc2C)cn1 (centres unmarked) [Compound 34]
< 100 nM: Ba/F3 HER2YVMA cells | NCI-H1781 cells; [1] | BT474 cells; [2] | N87 cells; Homo sapiens

Cc1ccc(Oc2ccc(Nc3ncnc4sc5c(c34)C(C)CN(C(=O)/C=C/CN(C)C)C5)cc2C)cn1 (centres unmarked) [Compound 98, (E)-4-(dimethylamino)-1-(5-methyl-4-((3-methyl-4-((6-methylpyridin-3-yl)oxy)phenyl)amino)-5,8-dihydropyrido[4′,3′:4,5]thieno[2,3-d]pyrimidin-7(6H)-yl)but-2-en-1-one]
< 100 nM: NCI-H1781 cells; [1] | BT474 cells; [2] | N87 cells; Homo sapiens

Cc1ccc(Oc2ccc(Nc3ncnc4sc5c(c34)CCN(C(=O)/C=C/CN(C)C(C)(C)C)C5)cc2C)cn1 [Compound 33]
< 100 nM: Ba/F3 HER2YVMA cells | NCI-H1781 cells; [1] | BT474 cells; [2] | N87 cells; Homo sapiens

Cc1ccc(Oc2ccc(Nc3ncnc4sc5c(c34)CCN(C(=O)/C=C/CN3CCCOCC3)C5)cc2C)cn1 [Compound 42]
< 100 nM: NCI-H1781 cells; [1] | BT474 cells; [2] | N87 cells; Homo sapiens

Cc1ccc(Oc2ccc(Nc3ncnc4sc5c(c34)C(C)CN(C(=O)C=CCN(C)C)C5)cc2C)cn1 (single isomer, unassigned) [Compound 106]
< 100 nM: Ba/F3 HER2YVMA cells | NCI-H1781 cells; NCI-H1781 cells | BT474 cells; BT474 cells | N87 cells

Cc1ccc(Oc2ccc(Nc3ncnc4sc5c(c34)CCN(C(=O)/C=C/CN(C)C)CC5)cc2C)cn1 [Compound 100, (E)-4-(dimethylamino)-1-(4-((3-methyl-4-((6-methylpyridin-3-yl)oxy)phenyl)amino)-8,9-dihydro-5H-pyrimido[5′,4′:4,5]thieno[2,3-d]azepin-7(6H)-yl)but-2-en-1-one]
< 100 nM: NCI-H1781 cells; [1] | BT474 cells; [2] | N87 cells; Homo sapiens

Cc1ccc(Oc2ccc(Nc3ncnc4sc5c(c34)C(C)CN(C(=O)C=CCN(C)C)C5)cc2C)cn1 (single isomer, unassigned) [Compound 105]
< 100 nM: NCI-H1781 cells; [1] | BT474 cells; [2] | N87 cells; Homo sapiens
